Series [1] has as its system carrageenin-induced paw inflammation. Description: paw inflammation induced by carrageenin in mice. Particulars: for anti-inflammatory effects relative to nimesulide (times stronger): 0.243 mM/kg vs nimesulide 0.243 mM/kg; for anti-inflammatory effects relative to nimesulide (times stronger) / Paw Swelling mm (M ± SD) at 3 hours: at 3 hours; for anti-inflammatory effects compared with nimesulide (in words) / Paw Swelling mm (M ± SD) at 3 hours / Paw Swelling mm (M ± SD) at 6 hours: mice; for anti-inflammatory effects compared with nimesulide (in words): oral; for Paw Swelling mm (M ± SD) at 3 hours / Paw Swelling mm (M ± SD) at 6 hours: orally administered; for Paw Swelling mm (M ± SD) at 3 hours: 0.243 mM/Kg; for Paw Swelling mm (M ± SD) at 6 hours: 0.485 mM/Kg. The class given is in vivo.

Series [2] in a line: acute oral toxicity in mice. To be noted: orally administered.
For series [3], the system named is acetate-induced body twisting. Briefly: acetate-induced body twisting in mice (analgesic effect). To be noted: for analgesic effects compared with nimesulide (in words): oral.
[4] abbreviates: orally administered, 0.485 mM/Kg.
The mark [5] stands for this setting: orally administered, 0.97 mM/Kg.

Consider “4-nitro-2-[(4′-methoxy)-phenoxy]-methanesulfonyl aniline [S6]”, for which, in series [1], the “anti-inflammatory effects relative to nimesulide (times stronger)” value is reported as “about 4 times”, the “anti-inflammatory effects compared with nimesulide (in words)” value is “significantly stronger than that of nimesulide”, the “Paw Swelling mm (M ± SD) at 3 hours” value was 0.58 ± 0.67 mm and the “Paw Swelling mm (M ± SD) at 6 hours” value was 1.91 ± 0.66 mm. In series [2], the “LD50 value (95% C.L.)” value was found to be 2355.5 mg/kg and the “toxicity relative to nimesulide (times lower)” value was “about 4 times”. Besides, in series [3], the “analgesic effects compared with nimesulide (in words)” value was “significantly stronger than nimesulide”. Moreover, the “No. of body-twistings (M ± SD) at 1 hour” value in series [3] (setting [4]) came to 11.4 ± 5.3. Also, in series [3] (setting [5]), the “No. of body-twistings (M ± SD) at 1 hour” value was 10.8 ± 11.4.

For `CS(=O)(=O)Nc1ccc([N+](=O)[O-])cc1Oc1ccccc1` [Nimesulide, nimesulide, reference compound], in series [1], the “Paw Swelling mm (M ± SD) at 3 hours” value came out at 2.10 ± 1.39 mm and the “Paw Swelling mm (M ± SD) at 6 hours” value was determined as 2.58 ± 1.20 mm. The “No. of body-twisting (M ± SD) at 3 hours” value in series [3] (setting [4]) worked out at 11.1 ± 9.7. For the same compound, in series [3] (setting [5]), the “No. of body-twistings (M ± SD) at 1 hour” value is 14.8 ± 11.7. For the same compound, the “No. of body-twisting (M ± SD) at 6 hours” value in series [3] (orally administered, 0.97 (head: mg/Kg), at 6 hours) is recorded as 21.00 ± 19.09.

`COc1ccc(Oc2cc([N+](=O)[O-])ccc2NS(C)(=O)=O)cc1.C[C@H]1CC[C@H](N)CC1` [S9, 4-nitro-2-[(4′-methoxy)-phenoxy]-methanesulfonyl aniline, trans-4-methyl-cyclohexylamine salt]: in series [1], the “anti-inflammatory effects relative to nimesulide (times stronger)” value amounted to 2 times, the “anti-inflammatory effects compared with nimesulide (in words)” value is on record as “significantly stronger than that of nimesulide” and the “Paw Swelling mm (M ± SD) at 3 hours” value was found to be 1.18 ± 0.65 mm. In series [2], the “LD50 value (95% C.L.)” value turned out to be 1223.3 mg/kg and the “toxicity relative to nimesulide (times lower)” value is listed as “about 2 times”. In addition, the “analgesic effects compared with nimesulide (in words)” value in series [3] is listed as “significantly stronger than nimesulide”. In series [3] (setting [4]), the “No. of body-twisting (M ± SD) at 3 hours” value is 6.7 ± 6.2.
